The source of these data is patent US4011182A, “Cyclic undecapeptide analogs of somatostatin and intermediates” (American Home Products Corporation, priority 1975, dated 1977).

Where two headings read alike, the source gives them in different places. Where a SMILES comes first, the peptide text is derived from it.

For assay [1], the system named is growth hormone. The assay is described as follows: Growth hormone level by radioimmunoassay in nembutal-treated rats after subcutaneous injection. The assay is classed as in vivo. As for the experimental part: The growth hormone activities of the compounds of Example 5 was determined by injecting rats weighing about 200-250 g. first with nembutal intraperitoneally at a dose of 50 mg/kg then after 5 minutes injecting the rats subcutaneously with a solution of the compound of Example 5 in saline at a dose of 2 mg/kg per rat. Blood samples are taken 15 minutes after injection with the compound of Example 5 and the growth hormone level determined by radioimmunoassay. […] The foregoing experiment was repeated but the dose of the compound of Example 5 was raised to 2.38 mg/kg and the blood was sampled 2 hours after injection.

The next assay deals with insulin. The assay can be described thus: In vivo assay of simultaneous release of growth hormone, insulin and glucagon (pentobarbital, arginine): insulin. Also on record: species or system rats. As for the experimental part:
(§1) Another test was conducted with the compound of Example 5 to determine its effect upon insulin and glucagon levels. The in vivo assay determining simultaneous release of growth hormone, insulin and glucagon was carried out by injecting three groups of male rats weighing about 200 to 250 g. (9 animals per group) with pentobarbital […], a subcutaneous injection of SRIF at a dose of 0.2 mg/kg to another group of rats and a subcutaneous injection of saline solution to the third group of rats. Ten minutes after such injection the rats receive 150 mg. arginine in 0.5 ml. saline directly in the heart. Five minutes later the rats are decapitated, the blood collected and various radioimmunoassays are run.

A further assay deals with glucagon. The assay is described as follows: In vivo assay of simultaneous release of growth hormone, insulin and glucagon (pentobarbital, arginine): glucagon. Details: species or system rats. As for the experimental part:
as §1, with “pentobarbital intraperitoneally at a dose of 50 mg/kg per rat followed 15 minutes” for “pentobarbital”

Assay [2] has as its system growth hormone. As for the experimental part: Another test was conducted with the compound of Example 5 to determine its effect upon insulin and glucagon levels. The in vivo assay determining simultaneous release of growth hormone, insulin and glucagon was carried out by injecting three groups of male rats weighing about 200 to 250 g. (9 animals per group) with pentobarbital intraperitoneally at a dose of 50 mg/kg per rat followed 15 minutes later by a subcutaneous injection of the compound of Example 5 at a dose of 2.7 mg/kg to one group of rats, a subcutaneous injection of SRIF at a dose of 0.2 mg/kg to another group of rats and a subcutaneous injection of saline solution to the third group of rats. Ten minutes after such injection the rats receive 150 mg. arginine in 0.5 ml. saline directly in the heart. Five minutes later the rats are decapitated, the blood collected and various radioimmunoassays are run.

Where [3] appears, read: male rats, 2.7 mg/kg subcutaneously, arginine stimulated.

With `C[C@@H](O)[C@@H]1NC(=O)[C@H](Cc2ccccc2)NC(=O)[C@H]([C@@H](C)O)NC(=O)[C@H](CCCCN)NC(=O)[C@H](Cc2c[nH]c3ccccc23)NC(=O)[C@H](Cc2ccccc2)NC(=O)[C@H](Cc2ccccc2)NC(=O)[C@H](CC(N)=O)NC(=O)[C@H](CCCCN)NC(=O)CC[C@@H](C(=O)O)NC(=O)[C@H](CO)NC1=O` [Example 5, L-lysyl-L-asparaginyl-L-phenylalanyl-L-phenylalanyl-L-tryptophyl-L-lysyl-L- threonyl-L-phenylalanyl-L-threonyl-L-seryl-L-glutamyl (cyclo α-lysyl to γ-glutamyl) peptide] (HELM PEPTIDE1{K.N.F.F.W.K.T.F.T.S.E}$PEPTIDE1,PEPTIDE1,1:R1-11:R3$$$V2.0), the growth hormone level with growth hormone [1] (rats, 2 mg/kg subcutaneously, blood 15 minutes after injection, control 132 ± 20) is 79 ± 14 ng/mL; in the assay with growth hormone [1] (rats, 2.38 mg/kg subcutaneously, blood 2 hours after injection, control 244 ± 38), 89 ± 23 ng/mL. Further, the insulin levels result in the assay on insulin (setting [3]) is on record as “neither glucagon nor insulin levels were lowered”. In the assay with glucagon (setting [3]), the glucagon levels entry is “neither glucagon nor insulin levels were lowered”.

For the compound “L-Lysyl-L-asparaginyl-L-phenylalanyl-L-phenylalanyl-D-tryptophyl-L-lysyl-L- threonyl-L-phenylalanyl-L-threonyl-L-seryl-glutamyl-(cyclo-α-lysyl to γ-glutamyl)peptide [Example 6]”, the growth hormone level is on record as 34 ± 11 nanograms per milliliter with growth hormone [1] (rats, 1,500 μg/kg, after four hours, control 182 ± 49) and 18 ± 4 nanograms per milliliter in the assay with growth hormone [1] (rats, 1,500 μg/kg, two hours after administration, control 180 ± 27). Moreover, the GH was found to be 61 ± 7 ng/mL in the assay with growth hormone [2] (experiment 1, dose 3,000 μg/kg, control 247±52) and 192 ± 29 ng/mL with growth hormone [2] (experiment 2, dose 12 μg/kg, control 315±22). The Insulin was 152±13 μU/ml in the assay on insulin (experiment 1, dose 3,000 μg/kg, control 194±17) and 93±9 μU/ml in the assay on insulin (experiment 3, dose 3,000 μg/kg, control 183±19). The same compound gave a Glucagon in the assay on glucagon (experiment 3, dose 3,000 μg/kg, control 129±9) of 107±9 picog/ml.
